# Data: US12365643B2, “Phenoxy carboxylic acid compounds and medical uses thereof” (QINGDAO RISING BIOTECHNOLOGY CO., LTD, priority 2018, dated 2025)
# Assays:
# phosphorylated GSK3β = assay: Phosphorylated GSK3β level by Western blotting in HepG2; assay type: cell-based, human; conditions: 1 μM, 24 hours, HepG2, Western blotting (FIG. 6B)
# From the text: Carnitine palmitoyltransferase (CPT1α) is a rate-limiting enzyme of fatty acid oxidation. When the body or tissues are lacking in energy, CPT1α catalyzes the entry of fatty acids into mitochondria for […], and at the same time, CPT1α is also involved in the regulation of fatty acid-induced insulin resistance and inflammation. Protein kinase B/glycogen synthase kinase 3β (AKT/GSK3β) signaling pathway and insulin receptor substrate 1 (IRS-1) are key signaling pathways that regulate glucose metabolism in response to insulin signal. Therefore, by determining the effects of compounds on the CPT1α protein level and the AKT, GSK3β and IRS-1 protein phosphorylation levels, it is possible to evaluate the regulatory effects of the compounds on glycolipid metabolism.
# After human liver cancer cells HepG2 were incubated with the compound of the present application or the control drug at 1 μM for 24 hours, the CPT1α protein level and the AKT, GSK3β and IRS-1 phosphorylated protein levels in the cells were determined by Western blotting; after gray-scale scanning by using Image J15.0.1, normalization was performed by using β-tubulin protein level as internal control, and the quantitative analysis results were shown in FIG. 6.
# [1] = Metabolism of BJMU-2 by the liver
# PPARγ = PPARγ mRNA expression by real-time quantitative PCR in HepG2; assay type: cell-based, human; conditions: 1 μM, 6 hours, HepG2 (FIG. 5B)
# From the text: Peroxisome proliferation factor activated receptor (PPAR) is an important nuclear receptor that regulates glycolipid metabolism, including three subtypes: α, β/δ and γ. Peroxisome proliferator-activated receptor γ coactivator 1α (PGC-1α) is its auxiliary transcriptional activator. Acyl-CoA oxidase 1 (ACOX1) is the first rate-limiting enzyme for fatty acid β oxidation. Fatty acid binding protein 1 (FABP1) is highly expressed in liver, and can bind fatty acid, heme and other molecules to reduce their toxicity and damage. Up-regulating the expression level of these genes helps to improve the body's metabolism, and their agonists are an important class of anti-metabolic drugs. After the compound of the present application (1 μM) and the control drug gemfibrozil (1 μM) were incubated with human liver cancer cells HepG2 for 6 hours, real-time fluorescent quantitative PCR method was used to determine the relative expression of mRNA of related genes in the cells.
# The company which synthesized the primers was Suzhou Hongxun Biotechnology Co., Ltd. Tranzol reagent (Tranzol total RNA extraction reagent, TransGen Biotech) was used to extract total RNA from tissues. 5× All-In-One RT MasterMix reverse transcription kit (Abcam, USA) and real-time quantitative PCR Master Mix (Aidlab Biotechnologies Co., Ltd) were used. Bio-Rad CFX Connect™ Real-Time PCR Detection System for qPCR was used, and 2^−ΔΔCT method was used for data analysis. The expression level of mRNA in the normal control group was set to 1, and the relative expression level of mRNA in the administration group was calculated, so as to confirm whether the active compound affected the PPAR pathway, thereby further regulating lipid metabolism.
SMILES,phosphorylation level of GSK3β (phosphorylated GSK3β),metabolism by the liver [1],PPARγ mRNA expression (PPARγ)
"Cc1cc(OCCCC(C)(C)C(=O)O)c(C)cc1Br [BJMU-2, 5-(4-bromo-2,5-dimethylphenoxy)-2,2-dimethylpentanoic acid]",significantly increased the phosphorylation level of GSK3β,could be metabolized by the liver to produce metabolites BJMU-415 and 502,significantly induced PPARγ mRNA expression
"Cc1cc(OCCCC(C)(C)C(=O)O)c(C)cc1F [BJMU-3, 5-(4-fluoro-2,5-dimethylphenoxy)-2,2-dimethylpentanoic acid]",–,–,significantly induced PPARγ mRNA expression
